From PMC6433685, “Histone deacetylase inhibitor LMK235 attenuates vascular constriction and aortic remodelling in hypertension” (Journal of Cellular and Molecular Medicine, 2019)

Legend:
[1] = system: bisphenol A‐induced hypertension; parameters: method as in PMID 25103225; conditions: cited from earlier work
rat mesenteric arteries = test: Isometric tension: relaxation of U46619-induced contraction in rat mesenteric artery rings; parameters: species or system Sprague‐Dawley rats; conditions: mesenteric artery rings pretreated with 100 μmol/L for 30 minutes
Excerpt: Male Sprague‐Dawley rats were purchased from Orient Bio (Gyeonggi‐do, South Korea). The thoracic aortas and mesenteric arteries were excised and immersed in an ice‐cold, modified Krebs solution composed of NaCl (115 mmol/L), KCl (4.7 mmol/L), CaCl2 (2.5 mmol/L), MgCl2 (1.2 mmol/L), NaHCO3 (25 mmol/L), KH2PO4 (1.2 mmol/L) and dextrose (10 mmol/L). Mesenteric arteries are secondary branches of the main mesenteric trunk. The aortas and mesenteric arteries were cleaned by removing adherent connective tissue, soaked in the Krebs‐bicarbonate solution and cut into four ring segments (3.5 mm in length), as described previously.14 Some rings were denuded of endothelium by gently rubbing the internal surface with the edge of the forceps. Each aortic ring was suspended in a water‐jacketed organ bath (6 mL) maintained at 37°C and aerated with a mixture of 95% O2 and 5% CO2. Each ring was connected to an isometric force transducer (Danish Myo Technology, Skejbyparken, Aarhus N, Denmark). Rings were stretched to an optimal resting tension of 2.0 g, which was maintained throughout the experiment. Each ring was equilibrated in the organ bath solution for 90 minutes before the experiment involving the contractile response to 50 mmol/L of KCl addition. […]

HUVECs = test: Nitric oxide production in HUVECs (DAF-FM DA fluorescence); assay type: cell-based, Human; conditions: 250 μmol/L, 24 h
Method: A10 vascular smooth muscle cells (VSMCs) were incubated with Dulbecco's modified Eagle medium (DMEM) with 4500 mg/L glucose containing 10% foetal bovine serum (FBS). Passages were carried out every 2 or 3 days. VSMCs were maintained in DMEM in the presence of 10% FBS with low glucose (1000 mg/L). Human umbilical vein endothelial cells (HUVECs) were obtained from Gibco (Waltham, MA, USA). HUVECs were grown in an endothelial cell basal medium (EBM) with EGM‐2 bullet kit (Lonza, Walkersville, MD) and maintained at 37°C under 5% CO2. Cells were cultured for 5‐7 passages.
We used a nitric oxide‐sensitive fluorescence probe, 4‐amino‐5‐methylamino‐2′,7′‐difluorescein diacetate (DAF‐FM DA, Cayman), for nitric oxide detection. HUVECs were seeded on coverslips in 12‐well plates (1.5 × 10^5/mL). Cells, serum‐starved with EBM for 16 hour, were treated with LMK235 (1 μmol/L) or L‐NAME (250 μmol/L) for 24 hour and incubated with DAF‐FM DA (2.5 μmol/L) for 45 minutes. Next, the cells were fixed with 70% ethanol for 45 minutes and mounted using Prolog Gold antifade reagent and DAPI (Invitrogen, USA).

[2] = system: angiotensin II‐induced hypertensive mice; conditions: cited from earlier work; for elevated BP: angiotensin II-induced hypertensive mice
SHRs = conditions: cited from earlier work

For COc1ccc(S(=O)(=O)N(CCO)c2ccccc2CN(C)C/C=C/c2ccc(Cl)cc2)cc1 [KN 93], the “bisphenol A-induced hypertension” value [1] is listed as “inhibit”.

With COC(=O)[C@@H](N)CCCNC(N)=N[N+](=O)[O-] [L‐NAME, reference compound] the LMK235-induced vascular relaxation (rat mesenteric arteries) was “inhibited vascular relaxation” and the “LMK235-induced increase of nitric oxide production” value (HUVECs) was “reduced”.

In the case of Cn1c(/C=C/C(=O)NO)ccc1/C=C/C(=O)c1cccc(F)c1 [MC1568], the “vascular hypertrophy and hyperplasia” value ([2]; angiotensin II-induced hypertensive mice and VSMCs) is given as “attenuates” and the “elevated BP” value [2] is given as “lowered elevated BP”.

In the case of CC(/C=C/C(=O)NO)=C\[C@@H](C)C(=O)c1ccc(N(C)C)cc1 [TSA, Trichostatin A], the “augmented angiotensin II-induced contraction in the mesenteric artery” value (SHRs; SHRs) is listed as “reversed” and the “systolic BP” value (SHRs; SHRs) is listed as “decreased systolic BP”.

For CN1CCc2c(c3ccccc3n2Cc2ccc(C(=O)NO)cc2)C1 [tubastatin A], the “elevated BP” value [2] is given as “not”.

For CCCC(CCC)C(=O)O [valproic acid], the BP (SHRs; SHRs or DOCA-salt-induced hypertensive rats) is listed as “attenuated BP” and the “cardiac AT1 mRNA levels” value (SHRs; SHRs) is listed as “reduced”.
